The values below come from patent US20150306002A1, “3-HYDROXY-4-OXO-4H-PYRAN- OR 3-HYDROXY-4-OXO-1,4-DIHYDROPYRIDINE DERIVATIVES AS PROTEIN-ADHESIVE ACTIVE SUBSTANCES” (MERCK PATENT GMBH, priority 2012, published 2015).

Test [1] can be described thus: Determination of the protein affinity in the lysine model (HPTLC). As to conditions: 10 mg in 5 ml THF made up to 10 ml with lysine solution (200 mg/l water), 35° C., HPTLC detection at 254 nm and 366 nm; for reaction with lysine in a Maillard reaction / detectability of starting substance after 1 h: sample after 1 h. How it is done:
In each case, 10 mg of the substances according to Example 1 and Example 2 are weighed out into a 10 ml volumetric flask and dissolved in 5 ml of tetrahydrofuran (THF). The volumetric flask is then made up to the mark with a lysine solution in distilled water. The concentration of the lysine solution is 200 mg/I of water. The solution is stirred in the volumetric flask at 35° C. for 24 h. Samples are taken after 1 h and after 24 h. 5 μl of each of these samples are pipetted onto the start zone of an HPTLC silica gel 60 […] plate (Merck Art. 1.05628) using a micropipette. For development of the HPTLC plate, the eluent consisting of THF/heptane in the ratio 75/25 containing 0.1 vol % of formic acid is used. After development, detection is carried out at 254 nm and 366 nm in a CAMAG ATS4, and the Rf values are determined.

Test [2] is described as follows: Investigation in the Liquidskin model (L*-a*-b* values, UV/VIS spectrometer). The following applies: RT, 3 hrs. The protocol: 1 mmol of the substance according to Example 1 (2-methyl-4-oxo-4H-pyran-3-yl 2-(4-dibutylamino-2-hydroxybenzoyl)benzoate) is dissolved in 94 ml of ethylene glycol and 6 ml of water (potassium hydrogenphthalate-buffered, pH=4) with 1 mmol of DL-lysine and stirred at RT for 3 hrs. (=Liquidskin model). The L*-a*-b* values of this solution are subsequently measured using a UV/VIS spectrometer (Varian Cary-100) and compared with the starting values.

Where [3] appears, read: 1 mmol substance + 1 mmol DL-lysine in 94 ml ethylene glycol and 6 ml water (pH=4), compared with starting values.

`CCCCN(CCCC)c1ccc(C(=O)c2ccccc2C(=O)Oc2c(C)occc2=O)c(O)c1` [Example 1, 2-methyl-4-oxo-4H-pyran-3-yl 2-(4-dibutylamino-2-hydroxybenzoyl)benzoate]: the “reaction with lysine in a Maillard reaction / detectability of starting substance after 1 h” value in test [1] is reported as “completely reacted with lysine”. Further, in test [2] (setting [3]), the “delta L*” value was −4.07, the “delta a*” value is given as −2.75 and the “delta b*” value is listed as “+7.83”. Besides, in test [2] (Liquidskin model), the “colour change of lysine” value is given as “exhibits a colour change of lysine”.
On to `COc1ccc(/C=C/C(=O)Oc2c(C)occc2=O)cc1` [Example 2, 2-methyl-4-oxo-4H-pyran-3-yl 2-(E)-3-(4-methoxyphenyl)acrylate], for which the “reaction with lysine in a Maillard reaction / detectability of starting substance after 1 h” value in test [1] is on record as “can still be detected”. For the same compound, the “reaction with lysine in a Maillard reaction / detectability of starting substance after 24 h” value in test [1] (sample after 24 h) was “reaction is complete”.
